Results taken from patent US20240174690A1, “ANNULATED 2-AMINO-3-CYANO THIOPHENES AND DERIVATIVES FOR THE TREATMENT OF CANCER” (BOEHRINGER INGELHEIM INTERNATIONAL GMBH, priority 2021, published 2024).
pIC50: −log10 of the molar value. In brackets after ≈: the same amount, converted by molar mass. Read-outs that look alike come from different tables or passages of the source.

Assays:
[1] = Solubility measurement (DMSO solution method), McIlvaine buffer pH 4.5 or 6.8; format: physicochemical; conditions: DMSO stock diluted to 250 μM, 24 h shaking at ambient temperature; for solubility at 24 h: aqueous buffer, kinetic from dmso stock
Procedure, shortened: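 DMSO stock diluted into McIlvaine buffer, pH 4.5 or 6.8, to 250 µM final, shaken 24 h at ambient temperature. Precipitate removed by filtration; filtrate quantified by LC-UV against a fully dissolved reference in acetonitrile/water 1:1.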

[2] = test system: KRAS G12C-dependent Ba/F3 cells; assay: Ba/F3 proliferation assay, KRAS G12C; format: cell-based; conditions: AlamarBlue
Procedure, shortened: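 Ba/F3 cells were retrovirally transduced with KRAS G12 mutant vectors, puromycin-selected (1 μg/mL) and grown without IL-3 to make them KRAS-dependent. Compounds were tested in technical duplicates, viability was read by AlamarBlue fluorescence, and values came from curve fitting.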

[3] = test system: NCI-H2122 cells; assay: NCI-H2122 CTG proliferation assay (120 h) (NSCLC, G12C); format: cell-based
Procedure, shortened: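 NCI-H2122 cells (KRAS G12C NSCLC), 200 per well in RPMI with 10% FCS, were dosed with compound on day 1 and incubated 120 h at 37 °C. Viability was read by CellTiter-Glo luminescence as percent of DMSO control, and IC50 was fitted with a four-parameter model.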

[4] = Caco-2 assay (permeability PappAB, PappBA, efflux ratio); format: in vitro ADME; conditions: human, Caco-2, 10 μM test compound, pH 7.4; for Papp A→B at 90 min, 10 μM: apical to basolateral; for efflux ratio at 90 min, 10 μM: efflux ratio PappBA/PappAB, read-out: Caco ER
Procedure, shortened: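 Confluent Caco-2 monolayers on filter supports, 0.25% BSA in both donor and receiver buffer; transport measured a-b and b-a. After 25-30 min preincubation at 37 °C, samples at 0, 30, 60, 90 min quantified by HPLC/MS/MS. Papp from receiver amount per time, filter area and initial donor concentration; efflux ratio = PappBA/PappAB.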

[5] = McIlvaine buffer pH 4.5, read-out: solubility pH 4.5
[6] = McIlvaine buffer pH 6.8, read-out: solubility pH 6.8

| Compound | solubility at 24 h [1, 5] [µg/mL] | solubility at 24 h [1, 6] [µg/mL] | pIC50 ([2]; Mus musculus, BaF3, 72 h) | pIC50 ([3]; Homo sapiens) | Papp A→B at 90 min, 10 μM [4] [×10⁻⁶ cm/s] | efflux ratio at 90 min, 10 μM [4] | solubility pH 4.5 ([1]; McIlvaine buffer pH 4.5) [μg/ml] | solubility pH 6.8 ([1]; McIlvaine buffer pH 6.8) [μg/ml] | pIC50 ([2]; 72 h) | pIC50 [3] |
| --- | --- | --- | --- | --- | --- | --- | --- | --- | --- | --- |
| C[C@H]1CN(C)CCCN1c1nc(-c2onc3c2CCC[C@@]32CCCc3sc(N)c(C#N)c32)cc(N2CCN(C)C3(CC3)C2)n1 [I-42] | > 141 | 99 (≈ 161 µM) | 6.06 |  |  |  |  |  |  |  |
| C[C@H](Oc1cc(-n2ccc(C(=O)O)n2)nc(-c2noc3c2CCC[C@@]32CCCc3sc(N)c(C#N)c32)n1)[C@@H]1CCCN1C [II-24] | < 1 | < 1 | 5.04 | 5.27 |  |  |  |  |  |  |
| C[C@H](Oc1cc(N2CCN(C)C3(COC3)C2)nc(-c2onc3c2CCC[C@@]32CCCc3sc(N)c(C#N)c32)n1)[C@@H]1C[C@@H](F)CN1C [I-37] | > 149 | 17 (≈ 26.2 µM) | 5.93 |  | 12 | 2 |  |  |  |  |
| C[C@H](Oc1cc(-c2ccn(C)n2)nc(-c2onc3c2CCC[C@@]32CCCc3sc(N)c(C#N)c32)n1)[C@@H]1CCCN1C [I-21] |  |  |  |  |  |  | 110 | 33 | 8.22 | 5.84 |
| Cc1ccc(-c2cc(O[C@@H](C)[C@@H]3CCCN3C)nc(-c3onc4c3CCC[C@@]43CCCc4sc(N)c(C#N)c43)n2)cn1 [I-28] | 93 (≈ 160 µM) | 8 (≈ 13.8 µM) | 7.17 | 5.58 |  |  |  |  |  |  |
| C[C@H](Oc1cc(N2CCN(C)C3(CCC3)C2)nc(-c2onc3c2CCC[C@@]32CCCc3sc(N)c(C#N)c32)n1)[C@@H]1CCCN1C [I-44] |  |  | 6.29 | 5.89 |  |  |  |  |  |  |
| CO[C@H]1CCN(C)[C@@H]1[C@H](C)Oc1cc(N2CCNC3(CC3)C2)nc(-c2onc3c2CCC[C@@]32CCCc3sc(N)c(C#N)c32)n1 [I-49] | > 154 | 43 (≈ 68.2 µM) | 6.89 |  | 10 | 2.9 |  |  |  |  |
| C[C@H](Oc1cc(-n2ccsc2=O)nc(-c2noc3c2CCC[C@@]32CCCc3sc(N)c(C#N)c32)n1)[C@@H]1CCCN1C [II-135] | 19 (≈ 32.2 µM) | < 1 | 8.40 | 6.95 |  |  |  |  |  |  |
| CO[C@H]1CCN(C)[C@@H]1[C@H](C)Oc1cc(-n2ccc(C(=O)N[C@@H]3CCOC3)n2)nc(-c2onc3c2CCC[C@@]32CCCc3sc(N)c(C#N)c32)n1 [I-53] | > 152 | 5 (≈ 7.14 µM) | 8.70 |  |  |  |  |  |  |  |
| C[C@H](Oc1cc(-c2cnn(C)n2)nc(-c2noc3c2CCC[C@@]32CCCc3sc(N)c(C#N)c32)n1)[C@@H]1C[C@@H](F)CN1C [II-28] | > 133 | < 1 | 7.46 | 5.02 |  |  |  |  |  |  |
| C[C@H](Oc1cc(-n2ccc(C(=O)N(C)C3COC3)n2)nc(-c2onc3c2CCC[C@@]32CCCc3sc(N)c(C#N)c32)n1)[C@@H]1CCCN1C [I-60] | > 158 | > 161 | 8.30 |  |  |  |  |  |  |  |
| C[C@H](Oc1cc(-c2ccc(N)nc2)nc(-c2onc3c2CCC[C@@]32CCCc3sc(N)c(C#N)c32)n1)[C@@H]1CCCN1C [I-25] | > 170 | 44 (≈ 75.5 µM) | 7.04 | 5.78 |  |  |  |  |  |  |
| C[C@H](Oc1cc(N2CCNC3(CC3)C2)nc(-c2onc3c2CCC[C@@]32CCCc3sc(N)c(C#N)c32)n1)[C@@H]1C[C@@H](F)CN1C [I-45] | > 148 | > 86 | 6.55 |  | 11 | 3.1 |  |  |  |  |
| COCCNC(=O)c1ccn(-c2cc(O[C@@H](C)[C@@H]3CCCN3C)nc(-c3onc4c3CCC[C@@]43CCCc4sc(N)c(C#N)c43)n2)n1 [I-58] | > 128 | 94 (≈ 143 µM) | 8.40 |  | 14 | 3.4 |  |  |  |  |
| C[C@H](Oc1cc(-n2nccn2)nc(-c2onc3c2CCC[C@@]32CCCc3sc(N)c(C#N)c32)n1)[C@@H]1CCCN1C [I-29] | > 114 | 82 (≈ 147 µM) | 7.74 | 5.50 |  |  |  |  |  |  |
| C[C@H](Oc1cc(N2CCN(C)C3(CC3)C2)nc(-c2onc3c2CCC[C@@]32CCCc3sc(N)c(C#N)c32)n1)[C@@H]1CCCN1C [I-41] | > 137 | 118 (≈ 192 µM) | 6.63 | 5.45 |  |  |  |  |  |  |
| [2H]C([2H])([2H])N1C[C@H](F)C[C@H]1[C@H](C)Oc1cc(N2CCN(C)C3(CC3)C2)nc(-c2noc3c2CCC[C@@]32CCCc3sc(N)c(C#N)c32)n1 [II-209] | > 150 | < 1 | 6.57 |  |  | 0.8 |  |  |  |  |
